Laboratory results: patent publication US11981658B2, “Substituted aminopyridine compounds as EGFR inhibitors” (YUHAN CORPORATION, priority 2021, dated 2024)
Where two headings read alike, the source gives them in different places.

What was measured:
[1] = biological target: EGFR wildtype (WT) (Homo sapiens, UniProt P00533); test: Biochemical EGFR kinase inhibition assay (Lance Ultra TR-FRET), wildtype
How it was run: (§1)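 Step 1: compound in kinase buffer, 0.003–10 μM. Step 2: kinase reaction 1 h at room temperature. Step 4: TR-FRET read at 615/665 nm; IC50 calculated.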

[2] = biological target: EGFR Del19/T790M/C797S (Homo sapiens, UniProt P00533, C797S/DEL746-750/T790M); test: Biochemical EGFR kinase inhibition assay (Lance Ultra TR-FRET), triple mutant del19/T790M/C797S
How it was run: as §1

[3] = biological target: EGFR L858R/T790M/C797S (Homo sapiens, UniProt P00533, C797S/L858R/T790M); test: Biochemical EGFR kinase inhibition assay (Lance Ultra TR-FRET), triple mutant L858R/T790M/C797S
Sequence of EGFR L858R/T790M/C797S (P00533 25-1210 T790M/C797S/L858R): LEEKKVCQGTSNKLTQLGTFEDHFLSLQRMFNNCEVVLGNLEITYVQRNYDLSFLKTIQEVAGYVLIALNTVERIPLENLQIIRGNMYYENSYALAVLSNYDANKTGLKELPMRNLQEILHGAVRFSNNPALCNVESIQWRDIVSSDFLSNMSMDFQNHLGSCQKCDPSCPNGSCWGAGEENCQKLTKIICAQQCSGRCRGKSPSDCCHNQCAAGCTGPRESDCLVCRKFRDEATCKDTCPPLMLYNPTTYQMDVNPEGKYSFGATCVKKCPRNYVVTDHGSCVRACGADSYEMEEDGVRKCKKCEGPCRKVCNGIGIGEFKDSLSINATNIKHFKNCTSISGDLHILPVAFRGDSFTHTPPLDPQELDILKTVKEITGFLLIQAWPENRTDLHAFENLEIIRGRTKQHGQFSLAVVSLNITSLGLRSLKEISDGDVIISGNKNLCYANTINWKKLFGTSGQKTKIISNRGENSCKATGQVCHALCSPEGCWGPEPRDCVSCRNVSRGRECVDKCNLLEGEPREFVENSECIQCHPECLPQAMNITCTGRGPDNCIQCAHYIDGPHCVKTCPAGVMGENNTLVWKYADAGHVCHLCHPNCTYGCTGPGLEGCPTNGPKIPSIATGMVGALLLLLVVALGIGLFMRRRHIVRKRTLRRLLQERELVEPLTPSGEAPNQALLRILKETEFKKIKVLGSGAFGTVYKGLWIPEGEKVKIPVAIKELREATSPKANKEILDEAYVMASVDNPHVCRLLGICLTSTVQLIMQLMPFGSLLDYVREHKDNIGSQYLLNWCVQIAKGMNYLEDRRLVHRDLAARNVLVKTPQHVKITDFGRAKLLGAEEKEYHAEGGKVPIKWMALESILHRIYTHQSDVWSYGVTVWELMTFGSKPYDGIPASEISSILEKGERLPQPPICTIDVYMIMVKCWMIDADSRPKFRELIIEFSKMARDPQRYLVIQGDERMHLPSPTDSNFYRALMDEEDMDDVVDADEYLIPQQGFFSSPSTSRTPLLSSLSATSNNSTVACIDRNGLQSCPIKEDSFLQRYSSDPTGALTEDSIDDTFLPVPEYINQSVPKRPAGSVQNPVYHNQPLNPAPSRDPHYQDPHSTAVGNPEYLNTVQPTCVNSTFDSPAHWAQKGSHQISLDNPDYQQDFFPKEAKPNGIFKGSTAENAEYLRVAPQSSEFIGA
How it was run: as §1

[4] = biological target: EGFR Del19/C797S (Homo sapiens, UniProt P00533, C797S/DEL746-750); test: Biochemical EGFR kinase inhibition assay (Lance Ultra TR-FRET), double mutant del19/C797S
Sequence of EGFR Del19/C797S (P00533 with tags, fused parts or gaps DEL746-750/C797S): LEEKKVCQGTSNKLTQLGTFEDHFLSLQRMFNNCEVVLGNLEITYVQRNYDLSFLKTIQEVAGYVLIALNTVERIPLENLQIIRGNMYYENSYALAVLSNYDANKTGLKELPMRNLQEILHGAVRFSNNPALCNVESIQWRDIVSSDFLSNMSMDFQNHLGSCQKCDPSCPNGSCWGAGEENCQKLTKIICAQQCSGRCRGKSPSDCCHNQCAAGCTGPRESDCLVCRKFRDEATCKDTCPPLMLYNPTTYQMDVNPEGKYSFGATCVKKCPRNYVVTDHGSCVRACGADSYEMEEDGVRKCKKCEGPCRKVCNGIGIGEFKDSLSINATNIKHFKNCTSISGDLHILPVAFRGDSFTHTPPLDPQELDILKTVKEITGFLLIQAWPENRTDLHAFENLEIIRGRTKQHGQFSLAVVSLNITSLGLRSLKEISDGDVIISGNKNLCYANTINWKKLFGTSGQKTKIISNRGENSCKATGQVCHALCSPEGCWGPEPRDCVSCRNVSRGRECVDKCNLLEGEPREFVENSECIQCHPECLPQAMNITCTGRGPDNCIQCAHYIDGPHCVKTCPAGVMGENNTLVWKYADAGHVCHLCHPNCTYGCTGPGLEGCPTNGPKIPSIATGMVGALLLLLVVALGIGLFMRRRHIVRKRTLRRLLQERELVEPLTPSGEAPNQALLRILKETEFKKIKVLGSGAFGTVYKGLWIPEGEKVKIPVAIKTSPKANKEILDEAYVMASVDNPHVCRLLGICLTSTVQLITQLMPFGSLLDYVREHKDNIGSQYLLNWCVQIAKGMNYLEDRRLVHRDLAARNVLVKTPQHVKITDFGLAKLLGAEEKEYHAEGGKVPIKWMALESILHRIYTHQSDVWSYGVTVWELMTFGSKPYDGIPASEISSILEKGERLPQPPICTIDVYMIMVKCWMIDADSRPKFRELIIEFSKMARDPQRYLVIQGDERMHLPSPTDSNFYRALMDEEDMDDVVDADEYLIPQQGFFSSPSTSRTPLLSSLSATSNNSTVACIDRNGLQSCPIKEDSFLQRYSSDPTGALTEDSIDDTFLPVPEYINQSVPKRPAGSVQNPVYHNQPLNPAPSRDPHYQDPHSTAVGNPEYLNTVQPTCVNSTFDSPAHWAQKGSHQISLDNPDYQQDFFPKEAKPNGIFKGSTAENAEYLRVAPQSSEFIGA
How it was run: as §1

[5] = biological target: EGFR L858R/C797S (Homo sapiens, UniProt P00533, C797S/L858R); test: Biochemical EGFR kinase inhibition assay (Lance Ultra TR-FRET), double mutant L858R/C797S
Sequence of EGFR L858R/C797S (P00533 25-1210 C797S/L858R): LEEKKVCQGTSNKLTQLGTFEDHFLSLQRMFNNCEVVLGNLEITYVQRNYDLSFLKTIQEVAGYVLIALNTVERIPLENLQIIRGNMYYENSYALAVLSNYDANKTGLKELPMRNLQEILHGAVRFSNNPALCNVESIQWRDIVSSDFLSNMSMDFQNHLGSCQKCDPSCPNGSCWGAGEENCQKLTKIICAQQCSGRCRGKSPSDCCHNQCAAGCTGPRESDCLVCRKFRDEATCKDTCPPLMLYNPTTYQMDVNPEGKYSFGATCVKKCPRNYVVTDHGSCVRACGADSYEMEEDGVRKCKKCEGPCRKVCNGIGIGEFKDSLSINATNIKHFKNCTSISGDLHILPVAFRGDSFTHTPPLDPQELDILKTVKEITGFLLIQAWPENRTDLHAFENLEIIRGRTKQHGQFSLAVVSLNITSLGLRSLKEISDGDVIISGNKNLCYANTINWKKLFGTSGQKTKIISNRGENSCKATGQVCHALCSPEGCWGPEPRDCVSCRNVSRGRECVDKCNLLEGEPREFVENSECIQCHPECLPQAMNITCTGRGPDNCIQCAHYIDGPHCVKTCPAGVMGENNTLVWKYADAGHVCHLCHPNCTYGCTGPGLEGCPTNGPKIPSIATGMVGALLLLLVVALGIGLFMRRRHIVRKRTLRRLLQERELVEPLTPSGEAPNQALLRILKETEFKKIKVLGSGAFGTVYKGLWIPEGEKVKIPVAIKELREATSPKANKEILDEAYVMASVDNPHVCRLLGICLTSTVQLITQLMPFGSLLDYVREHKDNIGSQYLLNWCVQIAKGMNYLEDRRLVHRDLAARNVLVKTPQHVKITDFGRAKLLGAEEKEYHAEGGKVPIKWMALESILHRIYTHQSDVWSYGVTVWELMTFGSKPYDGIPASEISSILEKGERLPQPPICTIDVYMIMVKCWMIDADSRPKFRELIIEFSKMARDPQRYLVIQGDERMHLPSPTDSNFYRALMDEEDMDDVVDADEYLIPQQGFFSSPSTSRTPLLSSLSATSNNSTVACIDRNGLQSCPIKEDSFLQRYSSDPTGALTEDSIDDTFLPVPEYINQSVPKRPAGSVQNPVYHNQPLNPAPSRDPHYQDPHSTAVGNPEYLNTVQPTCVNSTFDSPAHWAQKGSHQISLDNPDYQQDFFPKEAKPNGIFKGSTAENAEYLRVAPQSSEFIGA
How it was run: as §1

[6] = ATP at Km, read-out: IC50 WT (nM), Km ATP
[7] = ATP at Km, read-out: IC50 Del19/T790M/C797S (nM), Km ATP
[8] = IC50 Del19/T790M/C797S (nM), 100 μM ATP
[9] = ATP at Km, read-out: IC50 L858R/T790M/C797S (nM), Km ATP
[10] = IC50 L858R/T790M/C797S (nM), 100 μM ATP
[11] = ATP at Km, read-out: IC50 Del19/C797S (nM), Km ATP
[12] = IC50 Del19/C797S (nM), 100 μM ATP
[13] = ATP at Km, read-out: IC50 L858R/C797S (nM), Km ATP
[14] = IC50 L858R/C797S (nM), 100 μM ATP
[15] = Km ATP, read-out: IC50 WT (nM) Km ATP
[16] = Km ATP, read-out: IC50 Del19/T790M/C797S (nM) Km ATP
[17] = Km ATP, read-out: IC50 L858R/T790M/C797S (nM) Km ATP
[18] = Km ATP, read-out: IC50 Del19/C797S (nM) Km ATP
[19] = Km ATP, read-out: IC50 L858R/C797S (nM) Km ATP
[20] = Km ATP, read-out: IC50 WT (nM), Km ATP
[21] = Km ATP, read-out: IC50 Del19/T790M/C797S (nM), Km ATP
[22] = Km ATP, read-out: IC50 L858R/T790M/C797S (nM), Km ATP
[23] = Km ATP, read-out: IC50 Del19/C797S (nM), Km ATP
[24] = Km ATP, read-out: IC50 L858R/C797S (nM), Km ATP

Sequence of EGFR wildtype (WT) (P00533 25-1210): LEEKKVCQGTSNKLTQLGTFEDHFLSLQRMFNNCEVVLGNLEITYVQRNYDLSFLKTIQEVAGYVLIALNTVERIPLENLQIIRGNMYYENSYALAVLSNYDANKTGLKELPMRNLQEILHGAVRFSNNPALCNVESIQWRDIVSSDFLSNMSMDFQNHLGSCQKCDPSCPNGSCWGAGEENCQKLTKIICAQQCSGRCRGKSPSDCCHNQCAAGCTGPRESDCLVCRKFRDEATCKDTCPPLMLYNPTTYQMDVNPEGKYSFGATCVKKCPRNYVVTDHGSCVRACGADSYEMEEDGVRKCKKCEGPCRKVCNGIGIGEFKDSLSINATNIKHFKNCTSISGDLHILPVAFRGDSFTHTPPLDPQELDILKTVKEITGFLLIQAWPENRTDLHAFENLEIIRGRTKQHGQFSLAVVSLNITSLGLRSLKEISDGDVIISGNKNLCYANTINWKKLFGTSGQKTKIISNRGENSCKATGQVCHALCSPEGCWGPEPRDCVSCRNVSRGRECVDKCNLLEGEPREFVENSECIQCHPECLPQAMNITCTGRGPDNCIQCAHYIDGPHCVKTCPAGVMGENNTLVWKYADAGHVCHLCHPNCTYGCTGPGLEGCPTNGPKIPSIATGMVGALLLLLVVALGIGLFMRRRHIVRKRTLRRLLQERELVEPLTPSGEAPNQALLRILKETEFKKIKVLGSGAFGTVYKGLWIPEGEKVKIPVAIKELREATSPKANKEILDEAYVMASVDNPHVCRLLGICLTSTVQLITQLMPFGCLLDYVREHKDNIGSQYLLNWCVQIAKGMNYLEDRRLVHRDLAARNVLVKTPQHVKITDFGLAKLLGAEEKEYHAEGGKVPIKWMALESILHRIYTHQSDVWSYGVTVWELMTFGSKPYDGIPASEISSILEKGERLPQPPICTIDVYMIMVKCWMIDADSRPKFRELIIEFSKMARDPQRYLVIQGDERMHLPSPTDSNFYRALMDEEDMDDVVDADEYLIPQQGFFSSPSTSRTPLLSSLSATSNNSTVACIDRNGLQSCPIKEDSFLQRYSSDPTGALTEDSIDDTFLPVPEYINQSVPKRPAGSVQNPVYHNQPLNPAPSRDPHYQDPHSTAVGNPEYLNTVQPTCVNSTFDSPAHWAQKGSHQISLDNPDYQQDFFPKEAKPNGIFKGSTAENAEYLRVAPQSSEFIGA

SMILES	IC50 [1, 6] [nM]	IC50 ([1]; IC50 WT (nM), 100 μM ATP) [nM]	IC50 [2, 7] [nM]	IC50 [2, 8] [nM]	IC50 [3, 9] [nM]	IC50 [3, 10] [nM]	IC50 [4, 11] [nM]	IC50 [4, 12] [nM]	IC50 [5, 13] [nM]	IC50 [5, 14] [nM]	also measured
CC1(CO)CCN(c2cc(Nc3ccnc(-c4cnn(S(=O)(=O)C5CC5)c4)n3)ncc2C#CCC(F)(F)F)CC1 [Example 275, (1-(2-((2-(1-(Cyclopropylsulfonyl)-1H-pyrazol-4-yl)pyrimidin-4-yl)amino)-5-(4,4,4-trifluorobut-1-yn-1-yl)pyridin-4-yl)-4-methylpiperidin-4-yl)methanol]	62.3	> 10000	1	1.7	0.8	3.6	4.5	10.4	12.3	118	
CC(C)(CO)CNc1cc(Nc2ccnc(-c3cnn(S(=O)(=O)C4CC4)c3)n2)ncc1C#Cc1cnn(CCF)c1 [Example 40, 3-((2-((2-(1-Cyclopropylsulfonylpyrazol-4-yl)pyrimidin-4-yl)amino)-5-(2-(1-(2-fluoroethyl)pyrazol-4-yl)ethynyl)-4-pyridyl)amino)-2,2-dimethyl-propan-1-ol]		> 10000		4.8		13.1		49.1		278	
C=CC#Cc1cnc(Nc2ccnc(-c3cnn(S(=O)(=O)C4CC4)c3)n2)cc1N1CCC(C)(CO)CC1 [Example 277, (1-(5-(But-3-en-1-yn-1-yl)-2-((2-(1-(cyclopropylsulfonyl)-1H-pyrazol-4-yl)pyrimidin-4-yl)amino)pyridin-4-yl)-4-methylpiperidin-4-yl)methanol]	11.4	> 10000	0.6	0.8	0.3	1.8	1.4	3.3	2.5	33.7	
O=S(=O)(C1CC1)n1cc(-c2nccc(Nc3cc(N4CCC(NCCF)CC4)c(C#Cc4cnn(C5CCOCC5)c4)cn3)n2)cn1 [Example 136, 2-(1-(Cyclopropylsulfonyl)-1H-pyrazol-4-yl)-N-(4-(4-((2-fluoroethyl)amino)piperidin-1-yl)-5-((1-(tetrahydro-2H-pyran-4-yl)-1H-pyrazol-4-yl)ethynyl)pyridin-2-yl)pyrimidin-4-amine]		> 10000		0.3		1.2		4.9		30.5	IC50 [1, 15]: 60.2 nM; IC50 [2, 16]: 0.3 nM; IC50 [3, 17]: 0.3 nM; IC50 [4, 18]: 3.3 nM; IC50 [5, 19]: 2.7 nM
O=S(=O)(C1CC1)n1cc(-c2nccc(Nc3cc(N[C@H]4CC[C@@H](O)CC4)c(C#Cc4ccc(CN5CCOCC5)cc4)cn3)n2)cn1 [Example 157, (1s,4s)-4-((2-((2-(1-(Cyclopropylsulfonyl)-1H-pyrazol-4-yl)pyrimidin-4-yl)amino)-5-((4-(morpholinomethyl)phenyl)ethynyl)pyridin-4-yl)amino)cyclohexan-1-ol]	127	> 10000	3.3	3.6	1.7	4.6	3.7	10.6	3.3	40.8	
Cn1cc(C#Cc2cnc(Nc3ccnc(Nc4ccccc4S(C)(=O)=O)n3)cc2N2CCC(C)(CO)CC2)cn1 [Example 270, (4-Methyl-1-(5-((1-methyl-1H-pyrazol-4-yl)ethynyl)-2-((2-((2-(methylsulfonyl)phenyl)amino)pyrimidin-4-yl)amino)pyridin-4-yl)piperidin-4-yl)methanol]	111	> 10000	0.7	1.2	1.6	4.8	27.9	28	72.8	2800	
CN(C)Cc1ccc(CNc2cc(Nc3ccnc(-c4cnn(S(=O)(=O)C5CC5)c4)n3)ncc2C#Cc2cnn(CCF)c2)cc1 [Example 51, N^2-(2-(1-(Cyclopropylsulfonyl)-1H-pyrazol-4-yl)pyrimidin-4-yl)-N^4-(4-((dimethylamino)methyl)benzyl)-5-((1-(2-fluoroethyl)-1H-pyrazol-4-yl)ethynyl)pyridine-2,4-diamine]											IC50 [1, 15]: 262 nM; IC50 [2, 16]: 0.9 nM; IC50 [3, 17]: 3.2 nM; IC50 [4, 18]: 68.6 nM; IC50 [5, 19]: 49.1 nM
C[C@]1(O)CC[C@@H](Nc2cc(Nc3ccnc(-c4cnn(S(=O)(=O)C5CC5)c4)n3)ncc2C#CCN2CCOCC2)CC1 [Example 166, (1s,4s)-4-((2-((2-(1-(Cyclopropylsulfonyl)-1H-pyrazol-4-yl)pyrimidin-4-yl)amino)-5-(3-morpholinoprop-1-yn-1-yl)pyridin-4-yl)amino)-1-methylcyclohexan-1-ol]	411		1.4		0.9		66.5		21.9		IC50 ([1]; read-out: IC50 WT (nM), 100 μM ATP): > 10000 nM; IC50 ([2]; read-out: IC50 Del19/T790M/C797S (nM), 100 μM ATP): 1.9 nM; IC50 ([3]; read-out: IC50 L858R/T790M/C797S (nM), 100 μM ATP): 3.8 nM; IC50 ([4]; read-out: IC50 Del19/C797S (nM), 100 μM ATP): 51.1 nM; IC50 ([5]; read-out: IC50 L858R/C797S (nM), 100 μM ATP): 194 nM
Cn1cc(C#Cc2cnc(Nc3ccnc(-c4cnn(S(=O)(=O)C5CC5)c4)n3)cc2N[C@H]2CC[C@@H](O)CC2)c(C(F)(F)F)n1 [Example 92, (1s,4s)-4-((2-((2-(1-(Cyclopropylsulfonyl)-1H-pyrazol-4-yl)pyrimidin-4-yl)amino)-5-((1-methyl-3-(trifluoromethyl)-1H-pyrazol-4-yl)ethynyl)pyridin-4-yl)amino)cyclohexan-1-ol]		> 10000		5.5		11.3		67.5		80.7	

Further lines, with some results ahead:

IC50 [1, 6] [nM]	IC50 ([1]; IC50 WT (nM), 100 μM ATP) [nM]	IC50 [2, 7] [nM]	IC50 [2, 8] [nM]	IC50 [3, 9] [nM]	IC50 [3, 10] [nM]	IC50 [4, 11] [nM]	IC50 [4, 12] [nM]	IC50 [5, 13] [nM]	IC50 [5, 14] [nM]	SMILES	also measured
	6020		0.5		0.3		3.4		39.7	CC1(O)CCN(c2cc(Nc3ccnc(-c4cnn(S(=O)(=O)C5CC5)c4)n3)ncc2C#CC2CCS(=O)(=O)C2)CC1 (centres unmarked) [Example 429, 3-((6-((2-(1-(Cyclopropylsulfonyl)-1H-pyrazol-4-yl)pyrimidin-4-yl)amino)-4-(4-hydroxy-4-methylpiperidin-1-yl)pyridin-3-yl)ethynyl)tetrahydrothiophene 1,1-dioxide]	IC50 [1, 20]: 38.9 nM; IC50 [2, 21]: 0.2 nM; IC50 [3, 22]: 0.2 nM; IC50 [4, 23]: 4.9 nM; IC50 [5, 24]: 4.8 nM
	> 10000		10.3		13.9		245		9130	O=S(=O)(C1CC1)n1cc(-c2nccc(Nc3cc(N4C[C@@H]5[C@@H](CO)[C@@H]5C4)c(C#Cc4cnn(C(F)(F)F)c4)cn3)n2)cn1 [Example 331, ((1R,5S,6r)-3-(2-((2-(1-(Cyclopropylsulfonyl)-1H-pyrazol-4-yl)pyrimidin-4-yl)amino)-5-((1-(trifluoromethyl)-1H-pyrazol-4-yl)ethynyl)pyridin-4-yl)-3-azabicyclo[3.1.0]hexan-6-yl)methanol]	IC50 [1, 20]: 309 nM; IC50 [2, 21]: 6.1 nM; IC50 [3, 22]: 5 nM; IC50 [4, 23]: 87.5 nM; IC50 [5, 24]: 173 nM
	> 10000		4.1		10.6		34.6		1550	CC1(O)CCC(CNc2cc(Nc3ccnc(-c4cnn(S(=O)(=O)C5CC5)c4)n3)ncc2C#CC2CCCO2)CC1 (centres unmarked) [Example 377, (1 r,4r)-4-(((2-((2-(1-(Cyclopropylsulfonyl)-1H-pyrazol-4-yl)pyrimidin-4-yl)amino)-5-((tetrahydrofuran-2-yl)ethynyl)pyridin-4-yl)amino)methyl)-1-methylcyclohexan-1-ol]	IC50 [1, 20]: 132 nM; IC50 [2, 21]: 3 nM; IC50 [3, 22]: 1.2 nM; IC50 [4, 23]: 20.3 nM; IC50 [5, 24]: 52.2 nM
	> 10000		2.7		5.3		64		103	O=S(=O)(C1CC1)n1cc(-c2nccc(Nc3cc(N[C@H]4CC[C@](O)(CO)CC4)c(C#Cc4cnn(C(F)F)c4)cn3)n2)cn1 [Example 304, (1s,4s)-4-((2-((2-(1-(Cyclopropylsulfonyl)-1H-pyrazol-4-yl)pyrimidin-4-yl)amino)-5-((1-(difluoromethyl)-1H-pyrazol-4-yl)ethynyl)pyridin-4-yl)amino)-1-(hydroxymethyl)cyclohexan-1-ol]	
